The values below come from US7196084B2, “Cdc25 phosphatase inhibitors” (Societe de Conseils de Recherches et d'Applications …, priority 2000, dated 2007).

Structures are written as SMILES. Where a name gives a salt, the structure may show the parent alone.

Data set [1] deals with Mia-PaCa2 (human pancreatic cancer cells). Nature of the data set: Anti-proliferative activity, WST1 colorimetric test, Mia-PaCa2. Format: cell-based. As to conditions: MIA PaCa-2, treated for 96 hours, read-out: IC50 on the cell proliferation of Mia-Paca2 lines. The method, then:
(§1) c) Characterization of the Anti-proliferative Activity:
(§2) By way of example, the effect of a treatment on two lines of human Mia-Paca2 and DU145 cells with compounds of Examples 1–5 described previously will be studied. The cell lines DU145 (human prostate cancer cells) and Mia-PaCa2 (human pancreatic cancer cells) were acquired from the American Tissue Culture Collection (Rockville, Md., USA). The cells placed in 80 μL of Dulbecco's modified Eagle medium (Gibco-Brl, Cergy-Pontoise, France) completed with 10% foetal calf serum inactivated by heating (Gibco-Brl, Cergy-Pontoise, France), 50000 units/l of penicillin and 50 mg/l streptomycin (Gibco-Brl, Cergy-Pontoise, France), and 2 mM of glutamine (Gibco-Brl, Cergy-Pontoise, France) were seeded on a 96-well plate on day 0. The cells were treated on day 1 for 96 hours with increasing concentrations of each of the compounds to be tested up to 50 μg/ml. At the end of this period, quantification of cell proliferation is evaluated by a colorimetric test based on the cleavage of the tetrazolium salt WST1 by mitochondrial dehydrogenases in viable cells leading to the formation of formazan (Boehringer Mannheim, Meylan, France). These tests are carried out in duplicate with 8 determinations per concentration tested. For each compound to be tested, the values included in the linear part of the sigmoid were retained for linear regression analysis and used to estimate the inhibitory concentration IC50. The products are solubilized in dimethylsulphoxide (DMSO) at 10^−2 M and finally used in culture with 0.5% DMSO.

Data set [2] has as its system phosphorylation of cdc2 in the Mia PaCa-2 line (endogenous cdc25C phosphatase of human cells). Nature of the data set: Measurement of the state of cdc2 phosphorylation (western blot). Format: cell-based. As to conditions: Mia-Paca2 cells treated with increasing concentrations, sampling 24 hours later, FIG. 1; menadione as reference inhibitor. The method, then:
b) Measurement of the State of cdc2 Phosphorylation:
This relates to showing that the enzymatic activity of cdc25-C phosphatase is inhibited in vivo […] in the presence of selected inhibitors.
The cells of the Mia PaCa2 line are seeded at a rate of 450 000 cells in 10 cm Petri dishes in Dulbecco's modified Eagle medium completed with 10% foetal calf serum. 48 hours later, the cells are treated for 1 hour with the compound to be tested or menadione at 100 μM (reference inhibitor). The medium is renewed after washing with PBS. 24 hours after the cells are scraped and lysed in the lysis buffer (Hepes 50 mM pH 7.5; NaCl 10 mM; Triton X100 1%; glycerol 10%; MgCl2 5 mM; EDTA 1 mM; sodium orthovanadate 1 mM; protease inhibitor cocktail 1836170 Roche Diagnostics). After centrifugation at 13 000 rpm for 10 minutes at 4° C., the concentration of proteins is determined in the supernatant (Bio-Rad DC Protein assay kit) and adjusted to 10 μg. The load buffer concentrated 5 times (Tris HCl 125 mM pH 7.4; SDS 10%; glycerol 50%; bromophenol blue 0.025%; β-mercaptoethanol 7%) is added to the samples. The samples are heated for 10 minutes at 100° C. The samples are deposited in a volume of 40 μl on Tris/Glycine 12% gels (BioRad). Migration occurs over 1 hour at 180 V. The proteins are transferred onto a nitrocellulose membrane (Hybond C, Amersham) under semi-dry conditions. […]

In data set [3] the test system is DU145 (human prostate cancer cells). Put plainly: Anti-proliferative activity, WST1 colorimetric test, DU145. Format: cell-based. The following applies: DU-145, treated for 96 hours, read-out: IC50 on the cell proliferation of DU-145 lines. The method, then:
as §1, §2

`Cc1ccc(S(=O)(=O)N2CCN(C(=O)c3cc4cc(O)ccc4cc3O)CC2)cc1` [Example 31, 3-({4-[(4-methylphenyl)sulphonyl]piperazin-1-yl}carbonyl) naphthalene-2,6-diol] registered a melting point of 135 to 137 °C. Moreover, the IC50 in data set [1] was not above 100 µM.

`CS(=O)(=O)Nc1ccc(CCNC(=O)c2cc3cc(O)ccc3cc2O)cc1` [Example 16, 3,7-dihydroxy-N-(2-{4-[(methylsulphonyl)amino]phenyl}ethyl)-2-naphthamide] gave a melting point of 176 to 178 °C. Moreover, in data set [1], the IC50 is not above 100 µM.

For `CCCCS(=O)(=O)Nc1ccc(CCNC(=O)c2cc3cc(O)ccc3cc2O)cc1` [Example 17, N-(2-{4-[(butylsulphonyl)amino]phenyl}ethyl)-3,7-dihydroxy-2-naphthamide], the melting point is 193 to 195 °C. For the same compound, in data set [1], the IC50 was not above 100 µM.

As to `Cc1ccc(S(=O)(=O)Nc2ccc(CCNC(=O)c3cc4cc(O)ccc4cc3O)cc2)cc1` [Example 18, 3,7-dihydroxy-N-[2-(4-{[(4-methylphenyl)sulphonyl]amino}phenyl)ethyl]-2-naphthamide], the melting point lay in the range of 182 to 184 °C. In data set [1], the IC50 was not above 100 µM.

With `COc1cc(CN(C)CCc2ccc([N+](=O)[O-])cc2)cc(N(C)C)c1O` [Example 8, 2-(dimethylamino)-6-methoxy-4-({methyl[2-(4-nitrophenyl)ethyl]amino}methyl)phenol], the IC50 in data set [1] was not above 100 µM.

`O=C(NCCc1ccc([N+](=O)[O-])cc1)c1cc2cc(O)ccc2cc1O` [Example 11, 3,7-dihydroxy-N-[2-(4-nitrophenyl)ethyl]-2-naphthamide] yielded a melting point of more than 250 °C. Also, in data set [1], the IC50 is not above 100 µM.

Regarding `COc1cc(N(C)C)cc(CN(C)CCc2ccc([N+](=O)[O-])cc2)c1O` [Example 1, 4-(dimethylamino)-2-methoxy-6-({methyl[2-(4-nitrophenyl)ethyl]-amino}methyl)phenol], the melting point was 91 to 93 °C. Also, the “increase of the phosphorylated form of cdc2” value in data set [2] was “growing increase of the phosphorylated form of cdc2”. Further, the IC50 in data set [1] was not above 100 µM.

For `CN(C)c1ccc(NC(=O)CCNCc2cccc(N=C(N)c3cccs3)c2)cc1` [Example 4, 3-[(3-{[amino(2-thienyl)methylidene]amino}-benzyl)amino]-N-[4-(dimethylamino)phenyl]propanamide hydrochloride], in data set [1], the IC50 was not above 100 µM.

As for `CCOP(=O)(OCC)Oc1ccc(CCNC(=O)c2cc3cc(O)ccc3cc2O)cc1` [Example 13, diethyl 4-{2-[(3,7-dihydroxy-2-naphthoyl)amino]ethyl}phenylphosphate], the melting point fell in the range of 192 to 194 °C. In data set [3], the IC50 is not above 100 µM. For the same compound, the IC50 in data set [1] is not above 100 µM.

Regarding `O=C(NCCc1ccc(NS(=O)(=O)c2ccc(F)cc2)cc1)c1cc2cc(O)ccc2cc1O` [Example 28, N-[2-(4-{[(4-fluorophenyl)sulphonyl]amino}phenyl)ethyl]-3,7-dihydroxy-2-naphthamide], the IC50 in data set [1] is not above 100 µM.

Consider `O=C(NCCc1ccc(NS(=O)(=O)c2cccc(C(F)(F)F)c2)cc1)c1cc2cc(O)ccc2cc1O` [Example 22, 3,7-dihydroxy-N-{2-[4-({[3-(trifluoromethyl)phenyl]sulphonyl}amino)phenyl]ethyl}-2-naphthamide], for which the IC50 in data set [3] and in data set [1] was not above 100 µM each time.

On to `COc1cc(N(C)C)cc(CNCCc2ccc([N+](=O)[O-])cc2)c1O` [Example 6, 4-(dimethylamino)-2-methoxy-6-({[2-(4-nitrophenyl)ethyl]amino}methyl)phenol], for which the IC50 in data set [1] was not above 100 µM.

In the case of `CC1CCN(S(=O)(=O)c2cccc(CNC(=O)c3cc4cc(O)ccc4cc3O)c2)CC1` [Example 29, 3,7-dihydroxy-N-{3-[(4-methyl-1-piperidinyl)sulphonyl]benzyl}-2-naphthamide], the IC50 in data set [1] was not above 100 µM.

Regarding `CCCCS(=O)(=O)N1CCN(C(=O)c2cc3cc(O)ccc3cc2O)CC1` [Example 33, 3-{[4-(butylsulphonyl)piperazin-1-yl]carbonyl}naphthalene-2,6-diol], the melting point lay within 105 to 110 °C.

Consider `CN(C)c1ccc(O)c(CNCCc2ccc([N+](=O)[O-])cc2)c1` [Example 7, 4-(dimethylamino)-2-({[2-(4-nitrophenyl)ethyl]amino}methyl)phenol], for which the IC50 in data set [1] is not above 100 µM.

For the compound `NS(=O)(=O)c1ccc(CCNC(=O)c2cc3cc(O)ccc3cc2O)cc1` [Example 14, N-{2-[4-(aminosulphonyl)phenyl]ethyl}-3,7-dihydroxy-2-naphthamide], the IC50 in data set [3] and in data set [1] was not above 100 µM throughout.

On to `CN(CCc1ccc([N+](=O)[O-])cc1)Cc1cc(O)ccc1O` [Example 9, 2-({methyl [2-(4-nitrophenyl)ethyl]amino}methyl)-1,4-benzenediol], for which the IC50 in data set [1] is not above 100 µM.

`CN1CCN(c2ccc(NC(=O)CCCc3ccc(N)cc3)cc2)CC1.Cl` [Example 5, 4-(4-aminophenyl)-N-[4-(4-methyl-1-piperazinyl)phenyl]butanamide hydrochloride] gave a melting point of 156 to 158 °C.

On to `CC1=CC(=O)c2ccccc2C1=O` [menadione, reference compound], for which the “increase of the phosphorylated form of cdc2” value in data set [2] is “increase”.

`CS(=O)(=O)N1CCN(C(=O)c2cc3cc(O)ccc3cc2O)CC1` [Example 32, 3-{[4-(methylsulphonyl)piperazin-1-yl]carbonyl}naphthalene-2,6-diol] displayed a melting point of 124 to 126 °C.

In turn, `CN(C)c1ccccc1NC(=O)CCCCc1ccc(/N=C(/N)c2cccs2)cc1.Cl` [Example 30, 5-(4-{[(1E)-amino(2-thienyl)methylidene]amino}phenyl)-N-[2-(dimethylamino)phenyl]pentanamide hydrochloride] gave a melting point of 145 to 148 °C. In addition, in data set [1], the IC50 is not above 100 µM.

Regarding `COc1cc(N(C)C)cc(CN(C)CCc2ccc([N+](=O)[O-])cc2)c1OC(C)=O` [Example 10, 4-(dimethylamino)-2-methoxy-6-({methyl[2-(4-nitrophenyl)ethyl]amino}methyl)phenyl acetate], in data set [1], the IC50 was not above 100 µM.

On to `CN(CCc1ccc([N+](=O)[O-])cc1)Cc1cc(N(C)C)ccc1O` [Example 2, 4-(dimethylamino)-2-({methyl[2-(4-nitrophenyl)ethyl]amino}methyl)phenol], for which the IC50 in data set [1] was not above 100 µM.
